Source: patent US11045435B2, “Methods for treating ocular diseases” (NATUREWISE BIOTECH & MEDICALS CORPORATION, priority 2016, dated 2021)

Experiments:
mouse model of CNV = assay: Laser-induced CNV mouse model (FP, FFA, OCT); format: in vivo, C57BL/6J mice
Protocol: Male C57BL/6J mice (BioLASCO Taiwan Co.) were maintained within the Animal Center at Taipei Medical University (TMU) and the CNV study was performed in accordance with ARVO statement and the experimental protocols were approved by the Institutional Animal Care and Use Committee of TMU (LAC-2017-0130). To create CNV, mice were anesthetized by injection of Balanzine (10% xylazine) (10 mg/kg) and Ketamine (80 mg/kg). The rupture of Bruch's membrane-choroid was achieved by laser photocoagulation (Micron III system, Phoenix Research Laboratories, Pleasanton, Calif.) using CNV laser burns of four spots (0.1-second duration, 250 mW) approximately two disc-diameters away from the optic disc. […]
The OCT module of the Micron III (Phoenix Research Laboratories, Pleasanton, Calif.) retinal imaging microscope was used to obtain images from retinal layers. […] Three retinal layers were defined and measured in the C57BL/6 mice included in this study: the inner layer, which comprises the retinal nerve fiber layer (RNFL), the ganglion cell layer (GCL), and the inner plexiform layer (IPL); the middle layer, which comprises the inner nuclear layer (INL), the outer plexiform layer (OPL), the outer nuclear layer (ONL), and the outer limiting membrane (OLM); and the outer layer, which comprises the inner and outer segments (IS/OS) of the photoreceptors and the retinal pigment epithelium.

ARPE-19 cells = assay: t-BHP-induced injury in ARPE-19 cells (MTT); format: cell-based, human; conditions: 0.03 μg/ml to 10 µg/ml, 12 h
Protocol: MTT assay was used to measure the viability of ARPE-19 cells and HUVECs. 2×10^5 ARPE-19 cells or 5×10^4 HUVECs were seeded in 96-well plates ([…]) and allowed to grow overnight. Negative control was prepared by adding 100 μl medium without cells. The cells were then treated with fresh medium with COMPOUND I (0.03, 0.1, 0.3, 1, 3 and 10 μg/ml) and/or oxidants (NaIO3, H2O2, t-BHP and NaN3) for 12, 24, or 72 hours (200 μl/well). The vehicle control group was treated with vehicle. 20 μl MTT (5 mg/ml) was added to wells, and incubated for another 4 h. After incubation, the medium was discarded and 100 μl DMSO was added to solubilize formazan produced from MTT by the viable cells. Absorbance was measured at 570 nm using a microplate reader (Bio-Rad Laboratories, Inc., CA). Cells viability was calculated according to the following formula: Viability of cells (%)=(absorbance in tested sample−absorbance in negative control)/(absorbance in vehicle control−absorbance in negative control)×100%.

Structure (SMILES): COc1ccc(COc2c(/C=C/C(=O)NO)ccc(OC)c2CC=C(C)C)cc1 [COMPOUND I]
- leaky area (FFA) (mouse model of CNV; 25 mg/kg/d oral for 7 or 28 days): significantly reduced
- tissue hyperplasia resulted from laser damage (mouse model of CNV; 25 mg/kg/d oral, day 7 and day 28): ameliorated
- effect on 200 μM t-BHP-induced injury (ARPE-19 cells): reversed
